For assay [1], the system named is NCI-H1703 (Squamous Cell Lung Carcinoma). The experiment in a line: combination Emax (second highest fraction inhibited in the dose matrix, 72 h); higher = more inhibition; extreme values may be limits of the assay. In short, it runs like this:
(§1)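 Bliss excess equals the observed combination effect minus the expected value EA + EB − EA·EB, where EA and EB are the effects of each agent alone. Combination Emax is the second-highest inhibition within the matrix. Inhibition was scaled from CellTiter-Glo 2.0 luminescence, with 0 set by vehicle wells and 1 by blank wells, after 72 hours of two-drug dosing of cells plated in 1536-well plates.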

Assay [2] concerns LU-165 (Small Cell Lung Carcinoma). The description is as above. Summed up:
as §1

Assay [3] concerns NCI-H2087 (Lung Adenocarcinoma). Described as above. Summed up: as §1
Assay [4] concerns HCC1395 (Breast Carcinoma). Described as above. Summed up: as §1
The subject of the next assay is PEO1 (Ovarian Carcinoma). The experiment in a line: Bliss excess, mean over the matrix (fraction); higher = more synergy. In short, it runs like this:
as §1

For assay [5], the system named is JHU-022 (Oral Cavity Carcinoma). Described as above. Summed up: as §1
The subject of assay [6] is NCI-H1703 (Squamous Cell Lung Carcinoma). The description is as above. Summed up: as §1
The subject of assay [7] is MHH-ES-1 (Ewing's Sarcoma). The description is as above. In short, it runs like this:
as §1

In assay [8] the test system is NCI-H441 (Lung Adenocarcinoma). The assay is described as above. Summed up:
as §1

A further assay deals with EW-7 (Ewing's Sarcoma). The description is as above. Summed up:
as §1

For another assay, the system named is NB13 (Neuroblastoma). The assay is described as above. Summed up: as §1
The test system of another assay is WM1552C (Melanoma). The description is as above. Summed up:
as §1

Take `C=CCn1c(=O)c2cnc(Nc3ccc(N4CCN(C)CC4)cc3)nc2n1-c1cccc(C(C)(C)O)n1` [AZD1775] + CCc1c2c(nc3ccc(O)cc13)-c1cc3c(c(=O)n1C2)COC(=O)[C@]3(O)CC [SN-38] (first compound max 1 µM, partner max 0.3 µM): the “combination Emax” value in [1] amounted to 0.992; in assay [2], 0.588; in [3] it was 0.941; in [4], 0.733. Besides, the Bliss excess with PEO1 (Ovarian Carcinoma) was -0.0267; in assay [5] it was -0.0638; in assay [6], -0.0341; in [7], -0.0073; in [8], -0.0906; in the assay on EW-7 (Ewing's Sarcoma), -0.0501. In addition, the values for the Bliss excess in the assay with NB13 (Neuroblastoma) and in the assay on WM1552C (Melanoma) were -0.0592 and -0.0628, respectively.

Take `C=CCn1c(=O)c2cnc(Nc3ccc(N4CCN(C)CC4)cc3)nc2n1-c1cccc(C(C)(C)O)n1` [AZD1775] + Nc1ccn([C@@H]2O[C@H](CO)[C@@H](O)C2(F)F)c(=O)n1 [Gemcitabine] (first compound max 1 µM, partner max 0.3 µM): the “combination Emax” value turned out to be 0.984 in [1], 0.508 in [2], 0.6 in assay [3] and 0.515 in assay [4]. For the same compound, the Bliss excess is 0.0712 in the assay on PEO1 (Ovarian Carcinoma); 0.0276 in assay [5]; 0.0364 in [6]; 0.0359 in assay [7]; -0.0298 in assay [8]; 0.0396 in the assay on EW-7 (Ewing's Sarcoma). Also, in the assay on WM1552C (Melanoma), the Bliss excess is -0.0467.

Take `CN(CCO)CC[C@H](CSc1ccccc1)Nc1ccc(S(=O)(=O)NC(=O)c2ccc(N3CCC([C@@H](O)c4ccccc4-c4ccc(Cl)cc4)CC3)cc2)cc1S(=O)(=O)C(F)(F)F` [AZD4320] + CS(=O)(=O)CCNCc1ccc(-c2ccc3ncnc(Nc4ccc(OCc5cccc(F)c5)c(Cl)c4)c3c2)o1 [Lapatinib] (first compound max 1 µM, 7x7, partner max 10 µM): the “combination Emax” value came out at 0.862 in assay [1], 0.943 in assay [2], 0.541 in assay [3] and 0.96 in assay [4]. In addition, the Bliss excess in the assay with PEO1 (Ovarian Carcinoma) is 0.0311; in assay [5], 0.0438; in [6], 0.0162; in assay [7] it was 0.136; in assay [8], -0.0156; in the assay with EW-7 (Ewing's Sarcoma), 0.138. Further, the Bliss excess with NB13 (Neuroblastoma) is 0.0537; in the assay with WM1552C (Melanoma) it was 0.0285.

Turning to `Cc1c2c(nn1C)CSCc1cc(n(C)n1)CSc1cc(c3ccccc3c1)OCCCc1c(C(=O)O)n(C)c3c-2c(Cl)ccc13` [AZD5991] + CC(=O)O[C@H]1C(=O)[C@@]2(C)[C@H]([C@H](OC(=O)c3ccccc3)[C@]3(O)C[C@H](OC(=O)[C@H](O)[C@@H](NC(=O)c4ccccc4)c4ccccc4)C(C)=C1C3(C)C)[C@]1(OC(C)=O)CO[C@@H]1C[C@@H]2O [Paclitaxel] (first compound max 1 µM, 7x7, partner max 3 µM), the “combination Emax” value was determined as 0.993 in assay [1], 0.36 in assay [2], 0.554 in assay [3] and 0.933 in assay [4]. In addition, the Bliss excess with PEO1 (Ovarian Carcinoma) was -0.0624; in [5] it was 0.0286; in [6] it was -0.0136; in [7] it was -0.009; in assay [8], -0.0193; with EW-7 (Ewing's Sarcoma) it was 0.0625. For the same compound, the Bliss excess with WM1552C (Melanoma) was found to be 0.0097.

Turning to `Cc1c2c(nn1C)CSCc1cc(n(C)n1)CSc1cc(c3ccccc3c1)OCCCc1c(C(=O)O)n(C)c3c-2c(Cl)ccc13` [AZD5991] + CS(=O)(=O)CCNCc1ccc(-c2ccc3ncnc(Nc4ccc(OCc5cccc(F)c5)c(Cl)c4)c3c2)o1 [Lapatinib] (first compound max 1 µM, 7x7, partner max 10 µM), the “combination Emax” value in [1] was 0.935; in [2], 0.225; in assay [3], 0.275; in assay [4] it was 0.94. Also, the Bliss excess was -0.0352 in the assay with PEO1 (Ovarian Carcinoma); 0.0807 in assay [5]; -0.0374 in assay [6]; 0.0286 in [7]; -0.0054 in [8]; 0.033 in the assay with EW-7 (Ewing's Sarcoma). Also, the Bliss excess in the assay with NB13 (Neuroblastoma) is -0.0239; in the assay with WM1552C (Melanoma), 0.0199.

In the case of `Cc1c2c(nn1C)CSCc1cc(n(C)n1)CSc1cc(c3ccccc3c1)OCCCc1c(C(=O)O)n(C)c3c-2c(Cl)ccc13` [AZD5991] + Nc1ccn([C@@H]2O[C@H](CO)[C@@H](O)C2(F)F)c(=O)n1 [Gemcitabine] (first compound max 1 µM, 7x7, partner max 0.3 µM), the figures for the “combination Emax” value in [1], in assay [2] and in assay [3] were 0.954, 0.423 and 0.546, respectively. Moreover, the Bliss excess was -0.0523 in the assay on PEO1 (Ovarian Carcinoma); -0.0307 in [5]; -0.0604 in assay [6]; 0.0106 in assay [8]; -0.0158 with EW-7 (Ewing's Sarcoma); -0.0232 in the assay on WM1552C (Melanoma).

In the case of `C[C@@H]1COCCN1c1cc(C2([S@](C)(=N)=O)CC2)nc(-c2ccnc3[nH]ccc23)n1` [AZD6738] + C1CC(C1)(C(=O)[O-])C(=O)[O-].N.N.[Pt+2] [Carboplatin] (first compound max 10 µM, 7x7, partner max 10 µM), the “combination Emax” value in assay [1] came out at 0.932; in assay [2], 0.41; in assay [3], 0.564; in assay [4] it was 0.586. Moreover, the Bliss excess is -0.0595 in the assay on PEO1 (Ovarian Carcinoma); -0.0325 in [5]; -0.0312 in assay [6]; -0.0078 in assay [7]; -0.0436 in [8]; -0.0315 in the assay with EW-7 (Ewing's Sarcoma). For the same compound, the Bliss excess with NB13 (Neuroblastoma) was -0.0955; in the assay with WM1552C (Melanoma), -0.0299.

Regarding `C[C@@H]1COCCN1c1cc(C2([S@](C)(=N)=O)CC2)nc(-c2ccnc3[nH]ccc23)n1` [AZD6738] + Nc1ccn([C@@H]2O[C@H](CO)[C@@H](O)C2(F)F)c(=O)n1 [Gemcitabine] (first compound max 10 µM, 7x7, partner max 0.3 µM), the “combination Emax” value worked out at 0.954 in assay [1], 0.551 in assay [2], 0.699 in assay [3] and 0.693 in assay [4]. The Bliss excess in the assay on PEO1 (Ovarian Carcinoma) was 0.0764; in [5], 0.0407; in [6], -0.006; in [7] it was 0.0624; in [8], 0.0418; in the assay on EW-7 (Ewing's Sarcoma) it was 0.0313. The Bliss excess in the assay with WM1552C (Melanoma) was 0.0225.

As for `C[C@@H](Nc1cc(F)cc(F)c1)c1cc(C(=O)N(C)C)cc2c(=O)cc(N3CCOCC3)oc12` [AZD8186] + C1CN(CCC1(C(=O)N[C@@H](CCO)C2=CC=C(C=C2)Cl)N)C3=NC=NC4=C3C=CN4 [AZD5363] (first compound max 10 µM, 7x7, partner max 10 µM), the “combination Emax” value was determined as 0.635 in assay [1], 0.375 in [2], 0.195 in assay [3] and 0.414 in [4]. For the same compound, the Bliss excess with PEO1 (Ovarian Carcinoma) was -0.0405; in assay [5], -0.0909; in assay [6], 0.0503; in [7], 0.0026; in assay [8], -0.0392; in the assay on EW-7 (Ewing's Sarcoma) it was -0.03. Moreover, the Bliss excess with WM1552C (Melanoma) is -0.0322.

The record behind these values is the supplement of paper PMC11061612.
